Format in all cases: cell-based
Assay [1] deals with T1, human AT1 receptor (Homo sapiens, UniProt P30556).
T1 construct: pcDNA3.1+ plasmid DNA into which had been inserted the coding region for human AT1, AT2, or ETB receptor; expressed in transfected cells; host or cells: CHO-AEQ (Chinese hamster ovary cells stably expressing aequorin), transient transfection with Fugene HD
T1 sequence (P30556 1-359): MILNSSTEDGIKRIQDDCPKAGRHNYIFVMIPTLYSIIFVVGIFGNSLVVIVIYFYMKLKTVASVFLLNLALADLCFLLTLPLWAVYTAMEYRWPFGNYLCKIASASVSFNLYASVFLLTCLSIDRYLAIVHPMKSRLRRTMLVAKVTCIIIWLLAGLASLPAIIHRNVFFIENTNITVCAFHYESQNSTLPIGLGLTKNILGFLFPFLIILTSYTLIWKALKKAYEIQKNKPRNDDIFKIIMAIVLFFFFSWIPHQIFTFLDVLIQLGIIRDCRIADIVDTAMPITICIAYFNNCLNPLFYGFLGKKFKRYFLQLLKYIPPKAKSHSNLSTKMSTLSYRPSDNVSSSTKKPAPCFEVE
Kind of assay: Aequorin bioluminescence intracellular calcium assay, CHO-AEQ-AT1 cells (inhibition of angiotensin II). Conditions: CHO-AEQ cells expressing AT1; 100 nM angiotensin II; samples 100 μg/ml; compared with losartan; FIG. 21. On the procedure:
(§1) To investigate the vasculoprotective, neuroprotective, and/or antihypertensive properties of Cecropia extracts, Chinese hamster ovary cells that had been stably transfected with aequorin (CHO-AEQ cells) were transiently transfected with various G-protein coupled receptors.
(§2) More particularly, CHO-AEQ cells were cultured in Dulbecco's Modified Eagle's Medium (DMEM) containing 10% fetal bovine serum as previously described (Vanderheyden et al., 126 Br J Pharmacol 1057-1065 (1999)). At 75% confluency, these cells were transiently transfected with pcDNA3.1+ plasmid DNA into which had been inserted the coding region for human AT1, AT2, or ETB receptor. The transient transfection was performed with Fugene HD® following the manufacturers' instructions (2 μg DNA to 7 μl Fugene HD® in Opti-MEM® medium. After transfection, the cells were cultured for an additional day, after which they were harvested and loaded with coelenterazine-h.
(§3) Intracellular calcium can be detected based on the interaction of calcium ions with the calcium binding bioluminescent complex aequorin. Upon calcium binding, aequorin oxidizes coelenterazine-h into coelenteramide with production of CO2 and emission of light (466 nm) (Le Poul et al., 7 J Biomol Screen 57-65 (2002). The CHO-AEQ cells that had been transiently transfected with human AT1, human AT2 or human ETB receptors were used in a bioluminescence assay to evaluate whether—and to what extent—material isolated from Cecropia obtusifolia could perturb G-protein coupled receptor(s).
(§4) Confluent CHO-AEQ cells that were grown and transfected in 75 cm^2 culture flasks were harvested by a brief treatment with a trypsin/EDTA solution, centrifuged, and resuspended in DMEM-F12 cell culture medium containing 0.1% BSA and denoted as assay buffer, at a cell density of 2.5×10^6 cells/ml. Subsequently, coelenterazine-h was added to the cell suspension to a final concentration of 5 μM. Cells were then incubated between 14 h and 18 h at room temperature in the dark under gentle shaking. After this loading step, 15 ml of assay buffer was added to the cells and then centrifuged for 7 min at 1100 rpm in a swinging bucket centrifuge. The resulting cell pellets were gently resuspended in assay buffer containing 1 μM coelenterazine-h at a cell density of 5×10^5 cells/ml. After a further incubation of 1.5 h at room temperature, the cell suspension was distributed at 100 μl/well in white Cellstar 96-well plates.
To assess the activity of the compounds derived from Cecropia obtusifolia extracts, lyophilized crude extract (and compounds that had been identified in the extract) were dissolved in DMSO at 1 mg/ml, and then further diluted in assay buffer to 100 μg/ml (final concentration) (Caballero-George et al., 4 Curr. Trends Biotechnol Pharm 881-899 (2010)). A […] was then added to each well containing the transiently transfected cells. […]
(§5) Measurements were initiated by injecting 50 μl solution/well, and the bioluminescence was recorded every 200 ms for 120 cycles. To account for slight variations in cell number, a final concentration of 10 μM ATP was added by a second injector to the cells (50 μl/well) and the resulting response was measured.
(§6) The effects were quantified by calculation of the area under the curves by integration of the obtained transient responses using GraphPad Prism 5™. The activation of the AT1, AT2, or ETB receptors was expressed as a fractional response. […]
For orientation: Calcium assays in cells follow changes in intracellular calcium, usually with a dye or a luminescent sensor.

For assay [2], the target named is T2, human AT2 receptor (Homo sapiens, UniProt P50052).
T2 construct: pcDNA3.1+ plasmid DNA into which had been inserted the coding region for human AT1, AT2, or ETB receptor; expressed in transfected cells; host or cells: CHO-AEQ (Chinese hamster ovary cells stably expressing aequorin), transient transfection with Fugene HD
T2 sequence (P50052 1-363): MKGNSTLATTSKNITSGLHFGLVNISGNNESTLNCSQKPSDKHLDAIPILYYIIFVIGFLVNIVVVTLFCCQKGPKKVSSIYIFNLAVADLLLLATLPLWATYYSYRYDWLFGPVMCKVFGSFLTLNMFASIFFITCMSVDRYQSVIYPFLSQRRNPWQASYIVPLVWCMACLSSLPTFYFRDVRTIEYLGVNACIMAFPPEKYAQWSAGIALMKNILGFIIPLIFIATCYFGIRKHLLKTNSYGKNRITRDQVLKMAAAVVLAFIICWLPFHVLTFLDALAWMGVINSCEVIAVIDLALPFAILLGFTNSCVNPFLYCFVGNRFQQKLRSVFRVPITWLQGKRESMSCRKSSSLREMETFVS
The assay can be described thus: Aequorin bioluminescence intracellular calcium assay, CHO-AEQ-AT2 cells. Particulars: CHO-AEQ cells expressing AT2; samples 100 μg/ml; compared with angiotensin II; FIG. 19. On the procedure: as §1, §2, §3, §4
To assess the activity of the compounds derived from Cecropia obtusifolia extracts, lyophilized crude extract (and compounds that had been identified in the extract) were dissolved in DMSO at 1 mg/ml, and then further diluted in assay buffer to 100 μg/ml (final concentration) (Caballero-George et al., 4 Curr. Trends Biotechnol Pharm 881-899 (2010)). A […] was then added to each well containing the transiently transfected cells. For comparison, control peptides were diluted in assay buffer to a final concentration of 0.1 μM angiotensin II or 10 nM endothelin-1. These control peptides are known to cause a transient rise in cytosolic calcium. The agonist solutions were loaded in the cell injector of a Victor spectrophotometer, and a 96-well plate was inserted.
as §5
The effects were quantified by calculation of the area under the curves by integration of the obtained transient responses using GraphPad Prism 5™. The activation of the AT1, AT2, or ETB receptors was expressed as a fractional response. This is obtained by dividing the agonist response by the sum of the agonist and ATP response for each well (i.e., agonist response/(ATP+agonist response)). […]

Assay [3] addresses T3, human ETB receptor (Homo sapiens, UniProt P24530).
T3 construct: pcDNA3.1+ plasmid DNA into which had been inserted the coding region for human AT1, AT2, or ETB receptor; expressed in transfected cells; host or cells: CHO-AEQ (Chinese hamster ovary cells stably expressing aequorin), transient transfection with Fugene HD
T3 sequence (P24530 27-442): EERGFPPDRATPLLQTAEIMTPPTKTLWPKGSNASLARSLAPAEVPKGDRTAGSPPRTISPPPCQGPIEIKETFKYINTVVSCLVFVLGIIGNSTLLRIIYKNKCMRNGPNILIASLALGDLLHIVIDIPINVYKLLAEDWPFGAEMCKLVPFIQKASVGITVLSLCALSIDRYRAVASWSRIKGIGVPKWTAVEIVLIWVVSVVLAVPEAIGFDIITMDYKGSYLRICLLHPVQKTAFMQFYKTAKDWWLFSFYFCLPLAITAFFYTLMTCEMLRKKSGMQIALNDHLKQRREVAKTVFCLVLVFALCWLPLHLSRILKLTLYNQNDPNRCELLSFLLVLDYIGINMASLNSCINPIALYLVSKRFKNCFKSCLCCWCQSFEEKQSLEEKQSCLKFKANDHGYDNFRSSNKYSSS
Kind of assay: Aequorin bioluminescence intracellular calcium assay, CHO-AEQ-ETB cells. Conditions: CHO-AEQ cells expressing ETB; samples 100 μg/ml; compared with 100 nM endothelin 1; FIG. 20. On the procedure:
as §1
More particularly, CHO-AEQ cells were cultured in Dulbecco's Modified Eagle's Medium (DMEM) containing 10% fetal bovine serum as previously described (Vanderheyden et al., 126 Br J Pharmacol 1057-1065 (1999)). At 75% confluency, these cells were transiently transfected with pcDNA3.1+ plasmid DNA into which had been inserted the coding region for human AT1, AT2, or ETB receptor. […]
Intracellular calcium can be detected based on the interaction of calcium ions with the calcium binding bioluminescent complex aequorin. […]
as §5, §6

In the case of `O=c1cc(-c2ccc(O)c(O)c2)oc2cc(O)c(C3OC(CO)C(O)C(O)C3OC3OCC(O)C(O)C3O)c(O)c12` (stereo not drawn) [Compound P4, isoorientin-2″-O-xyloside], the “inhibition of the agonistic effect of angiotensin II on the AT1 receptor” value (“inhibition” for short) in assay [1] is “less than half of the effect of Fraction 3-4”. The “activation of the AT2 receptor (cytoplasmic calcium release)” value (“activation … (cytoplasmic calcium release)” below) in assay [2] was “approximately half of the activity of the extract”.
Taken in the same sequence, the figures for `O=C(/C=C/c1ccc(O)c(O)c1)O[C@@H]1C[C@](O)(C(=O)O)C[C@@H](O)[C@H]1O` [Compound P2, chlorogenic acid] were “less than half of the effect of Fraction 3-4” and “approximately half of the activity of the extract”.
isovitexin-O-xyloside [Compound P6]: the “activation … (cytoplasmic calcium release)” value in assay [2] is “approximately half of the activity of the extract”. For the same compound, the “cytoplasmic calcium release after binding to the ETB receptors” value in assay [3] was “the most active sample tested”.
Regarding `CC1OC(OC2C(c3c(O)cc4oc(-c5ccc(O)cc5)cc(=O)c4c3O)OC(CO)C(O)C2O)C(O)C(O)C1O` (stereo not drawn) [Compound P9, isovitexin-2″-O-rhamnoside], the “inhibition” value in assay [1] is “less than half of the effect of Fraction 3-4”. Also, in assay [2], the “activation … (cytoplasmic calcium release)” value is given as “approximately half of the activity of the extract”.
Take `O=c1cc(-c2ccc(O)cc2)oc2cc(O)c(C3OC(CO)C(O)C(O)C3OC3OCC(O)C(O)C3O)c(O)c12` (stereo not drawn) [Compound P8, isovitexin-2″-O-xyloside]: in assay [1], the “inhibition” value is “less than half of the effect of Fraction 3-4”. Further, the “activation … (cytoplasmic calcium release)” value in assay [2] is recorded as “approximately half of the activity of the extract”.
For `O=c1cc(-c2ccc(O)cc2)oc2cc(O)c(C3OC(CO)C(O)C(O)C3OC3OC(CO)C(O)C(O)C3O)c(O)c12` (stereo not drawn) [Compound P7, isovitexin-2″-O-glucoside], in assay [1], the “inhibition” value is “less than half of the effect of Fraction 3-4”. The “activation … (cytoplasmic calcium release)” value in assay [2] is listed as “approximately half of the activity of the extract”.

(Values after patent publication US11304965B2, “Flavonoid compositions and related methods” (INSTITUTO DE INVESTIGACIONES CIENTIFICAS Y SERVICIOS DE …, priority 2017, dated 2022).)
